# Measured values from patent US20240368173A1, “TRICYCLIC GPR65 MODULATORS” (PATHIOS THERAPEUTICS LIMITED, priority 2021, published 2024).
# Target: human recombinant GPR65 (Homo sapiens, UniProt Q8IYL9)
# Assay: Human GPR65 cAMP HTRF antagonist assay
# Type: cell-based
# Conditions: not given
# How it was run: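 1321N1 astrocytoma cells stably expressing hrGPR65, with IBMX and EDTA, were preincubated with compound 30 min at room temperature, then acid-activated at assay pH 7.2 (control pH 7.9) for 30 min. cAMP read by HTRF (665/620 nm ratio); IC50 from 4-parameter fit normalised to high/low controls.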
# Sequence of human recombinant GPR65 (Q8IYL9 whole entry): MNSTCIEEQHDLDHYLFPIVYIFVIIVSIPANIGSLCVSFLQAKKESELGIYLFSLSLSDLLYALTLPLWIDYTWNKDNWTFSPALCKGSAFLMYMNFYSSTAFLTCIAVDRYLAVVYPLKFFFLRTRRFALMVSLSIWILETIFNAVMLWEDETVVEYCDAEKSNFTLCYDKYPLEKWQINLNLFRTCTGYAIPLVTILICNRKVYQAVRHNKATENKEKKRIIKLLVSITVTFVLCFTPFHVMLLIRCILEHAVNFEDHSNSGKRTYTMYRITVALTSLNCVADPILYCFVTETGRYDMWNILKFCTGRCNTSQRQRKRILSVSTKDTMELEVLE
row,Compound,IC50 [nM]
1,"Cc1nnc(-c2cc(F)c(NC(=O)N3[C@H]4CC[C@@H]3c3ccnc(F)c3C4)cc2Cl)s1 [Compound 64, (5R,8S)-N-(5-Chloro-2-fluoro-4-(5-methyl-1,3,4-thiadiazol-2-yl)phenyl)-1-fluoro-6,7,8,9-tetrahydro-5H-5,8-epiminocyclohepta[c]pyridine-10-carboxamide]",< 500
2,"O=C(Nc1cc(Cl)c(COc2ccc(F)nc2)cc1F)N1[C@H]2CC[C@@H]1c1n[nH]c(=O)cc1C2 [Compound 293, (6S,9R)-N-(5-Chloro-2-fluoro-4-(((6-fluoropyridin-3-yl)oxy)methyl)phenyl)-3-oxo-3,5,6,7,8,9-hexahydro-2H-6,9-epiminocyclohepta[c]pyridazine-10-carboxamide]",< 500
3,"O=C(Nc1cc(Cl)c(-c2ccccc2)cc1F)N1[C@H]2CC[C@@H]1c1ccnc(F)c1C2 [Compound 250, (5R,8S)-N-(2-Chloro-5-fluoro-[1,1′-biphenyl]-4-yl)-1-fluoro-6,7,8,9-tetrahydro-5H-5,8-epiminocyclohepta[c]pyridine-10-carboxamide]",< 500
4,"O=C(Nc1cc(Cl)c(Br)cc1F)N1C2CCC1c1c[nH]c(=O)nc1C2 (racemic) [Compound 16, (±)-N-(4-bromo-5-chloro-2-fluorophenyl)-2-oxo-3,5,6,7,8,9-hexahydro-2H-5,8-epiminocyclohepta[d]pyrimidine-10-carboxamide]",< 500
5,"O=C(Nc1cc(Cl)c(C(F)(F)F)cc1F)N1C2CCC1C(F)(F)c1c2ccnc1F (racemic) [Compound 183, (±)—N-(5-Chloro-2-fluoro-4-(trifluoromethyl)phenyl)-1,9,9-trifluoro-6,7,8,9-tetrahydro-5H-5,8-epiminocyclohepta[c]pyridine-10-carboxamide]",< 500
6,"O=C(Nc1cc(Cl)c(Cl)cc1F)N1[C@H]2CC[C@@H]1c1c[nH]c(=O)nc1C2 [Compound 22, (5R,8S)-N-(4,5-Dichloro-2-fluorophenyl)-2-oxo-3,5,6,7,8,9-hexahydro-2H-5,8-epiminocyclohepta[d]pyrimidine-10-carboxamide]",< 500
7,"O=C(Nc1cc(F)c(-c2ccc(F)nc2)cc1F)N1[C@H]2CC[C@@H]1c1c[nH]c(=O)cc1C2 [Compound 243, (6S,9R)-N-(2,5-Difluoro-4-(6-fluoropyridin-3-yl)phenyl)-3-oxo-3,5,6,7,8,9-hexahydro-2H-6,9-epiminocyclohepta[c]pyridine-10-carboxamide]",< 500
8,"O=C(Nc1cc(-c2ccc3nonc3c2)c(C(F)(F)F)cc1F)N1[C@H]2CC[C@@H]1c1c[nH]c(=O)cc1C2 [Compound 259, (6S,9R)-N-(5-(Benzo[c][1,2,5]oxadiazol-5-yl)-2-fluoro-4-(trifluoromethyl)phenyl)-3-oxo-3,5,6,7,8,9-hexahydro-2H-6,9-epiminocyclohepta[c]pyridine-10-carboxamide]",< 500
9,"O=C(Nc1cc(Cl)c(Cl)cc1F)N1[C@H]2CC[C@@H]1c1n[nH]c(=O)cc1C2 [Compound 20, (6S,9R)-N-(4,5-Dichloro-2-fluorophenyl)-3-oxo-3,5,6,7,8,9-hexahydro-2H-6,9-epiminocyclohepta[c]pyridazine-10-carboxamide]",< 500
10,"CN1C(=O)COc2ccc(-c3cc(F)c(NC(=O)N4[C@H]5CC[C@@H]4c4n[nH]c(=O)cc4C5)cc3Cl)cc21 [Compound 147, (6S,9R)-N-(5-Chloro-2-fluoro-4-(4-methyl-3-oxo-3,4-dihydro-2H-benzo[b][1,4]oxazin-6-yl)phenyl)-3-oxo-3,5,6,7,8,9-hexahydro-2H-6,9-epiminocyclohepta[c]pyridazine-10-carboxamide]",< 500
11,"O=C(Nc1cc(Cl)c(-c2ccc(OC3CCC3)nc2)cc1F)N1[C@H]2CC[C@@H]1c1n[nH]c(=O)cc1C2 [Compound 216, (6S,9R)-N-(5-Chloro-4-(6-cyclobutoxypyridin-3-yl)-2-fluorophenyl)-3-oxo-3,5,6,7,8,9-hexahydro-2H-6,9-epiminocyclohepta[c]pyridazine-10-carboxamide]",< 500
12,"O=C(Nc1ccc(Br)c(C(F)(F)F)c1)N1C2CCC1c1n[nH]c(=O)cc1C2 (racemic) [Compound 10, (±)-N-(4-Bromo-3-(trifluoromethyl)phenyl)-3-oxo-3,5,6,7,8,9-hexahydro-2H-6,9-epiminocyclohepta[c]pyridazine-10-carboxamide]",< 500
13,"O=C(Nc1cc(Cl)c(-c2cnc(F)c(F)c2)cc1F)N1[C@H]2CC[C@@H]1c1n[nH]c(=O)cc1C2 [Compound 279, (6S,9R)-N-(5-Chloro-4-(5,6-difluoropyridin-3-yl)-2-fluorophenyl)-3-oxo-3,5,6,7,8,9-hexahydro-2H-6,9-epiminocyclohepta[c]pyridazine-10-carboxamide]",< 500
14,"O=C(Nc1cc(Cl)c(-c2cncc(F)c2)cc1F)N1[C@H]2CC[C@@H]1c1ccnc(F)c1C2 [Compound 200, (5R,8S)-N-(5-Chloro-2-fluoro-4-(5-fluoropyridin-3-yl)phenyl)-1-fluoro-6,7,8,9-tetrahydro-5H-5,8-epiminocyclohepta[c]pyridine-10-carboxamide]",< 500
15,"CO[C@H]1C[C@@H](Oc2ccc(-c3cc(F)c(NC(=O)N4[C@H]5CC[C@@H]4c4c[nH]c(=O)cc4C5)cc3Cl)cn2)C1 [Compound 321, (6S,9R)-N-(5-Chloro-2-fluoro-4-(6-((1s,3S)-3-methoxycyclobutoxy)pyridin-3-yl)phenyl)-3-oxo-3,5,6,7,8,9-hexahydro-2H-6,9-epiminocyclohepta[c]pyridine-10-carboxamide]",< 500
16,"O=C(Nc1cc(Cl)c(C(F)(F)F)cc1F)N1[C@H]2CC[C@@H]1c1n[nH]c(=O)cc1C2 [Compound 18, (6S,9R)-N-(5-Chloro-2-fluoro-4-(trifluoromethyl)phenyl)-3-oxo-3,5,6,7,8,9-hexahydro-2H-6,9-epiminocyclohepta[c]pyridazine-10-carboxamide]",< 500
17,"O=C(Nc1cc(I)c(Cl)cc1F)N1[C@H]2CC[C@@H]1c1c[nH]c(=O)cc1C2 [Compound 80, (6S,9R)-N-(4-Chloro-2-fluoro-5-iodophenyl)-3-oxo-3,5,6,7,8,9-hexahydro-2H-6,9-epiminocyclohepta[c]pyridine-10-carboxamide]",500 to 5000
18,"Cc1nc2ccc(-c3cc(F)c(NC(=O)N4[C@H]5CC[C@@H]4c4n[nH]c(=O)cc4C5)cc3Cl)cc2o1 [Compound 170, (6S,9R)-N-(5-Chloro-2-fluoro-4-(2-methylbenzo[d]oxazol-6-yl)phenyl)-3-oxo-3,5,6,7,8,9-hexahydro-2H-6,9-epiminocyclohepta[c]pyridazine-10-carboxamide]",< 500
19,"O=C(Nc1cc(Cl)c(-c2ccc3cnoc3c2)cc1F)N1[C@H]2CC[C@@H]1c1n[nH]c(=O)cc1C2 [Compound 196, (6S,9R)-N-(4-(Benzo[d]isoxazol-6-yl)-5-chloro-2-fluorophenyl)-3-oxo-3,5,6,7,8,9-hexahydro-2H-6,9-epiminocyclohepta[c]pyridazine-10-carboxamide]",500 to 5000
20,"O=C(Nc1nnc(C2CCCCC2)s1)N1[C@H]2CC[C@@H]1c1ccnc(F)c1C2 [Compound 285, (5R,8S)—N-(5-cyclohexyl-1,3,4-thiadiazol-2-yl)-1-fluoro-6,7,8,9-tetrahydro-5H-5,8-epiminocyclohepta[c]pyridine-10-carboxamide]",< 500
21,"O=C(Nc1cc(Cl)c(-c2ccc(OCC(F)(F)F)nc2)cc1F)N1[C@H]2CC[C@@H]1c1ccnc(F)c1C2 [Compound 240, (5R,8S)-N-(5-Chloro-2-fluoro-4-(6-(2,2,2-trifluoroethoxy)pyridin-3-yl)phenyl)-1-fluoro-6,7,8,9-tetrahydro-5H-5,8-epiminocyclohepta[c]pyridine-10-carboxamide]",< 500
22,"O=C(Nc1cc(Cl)c(Cl)cc1F)N1[C@H]2CC[C@@H]1c1c(Cl)cnc(F)c1C2 [Compound 100, (5R,8S)-4-Chloro-N-(4,5-dichloro-2-fluorophenyl)-1-fluoro-6,7,8,9-tetrahydro-5H-5,8-epiminocyclohepta[c]pyridine-10-carboxamide]",< 500
23,"COc1ccc(-c2cc(F)c(NC(=O)N3[C@H]4CC[C@@H]3c3c[nH]c(=O)cc3C4)cc2F)cn1 [Compound 246, (6S,9R)-N-(2,5-Difluoro-4-(6-methoxypyridin-3-yl)phenyl)-3-oxo-3,5,6,7,8,9-hexahydro-2H-6,9-epiminocyclohepta[c]pyridine-10-carboxamide]",< 500

# Same assay, conditions: 1321N1-hrGPR65 cells, cAMP HTRF, assay pH 7.2; read-out: hGPR65 IC50 (Activity of selected compounds according to the invention)
row,Compound,IC50 [nM]
1,"O=C(Nc1cc(Cl)c(Cl)cc1F)N1[C@@H]2CC[C@H]1c1n[nH]c(=O)cc1C2 [Compound 21, (6R,9S)-N-(4,5-Dichloro-2-fluorophenyl)-3-oxo-3,5,6,7,8,9-hexahydro-2H-6,9-epiminocyclohepta[c]pyridazine-10-carboxamide]",500 to 5000
2,"O=C(Nc1cc(Cl)c(C(F)(F)F)cc1F)N1C2CC[C@@H]1c1ccnc(F)c1C2O (mixture of isomers) [Compound 204, (±)—(R)—N-(5-chloro-2-fluoro-4-(trifluoromethyl)phenyl)-1-fluoro-9-hydroxy-6,7,8,9-tetrahydro-5H-5,8-epiminocyclohepta[c]pyridine-10-carboxamide]",500 to 5000
3,"O=C(Nc1cc(Cl)c(C(F)(F)F)cc1F)N1C2CCC1[C@@H](O)c1c2ccnc1F (mixture of isomers) [Compound 156, (±)-(9S)—N-(5-chloro-2-fluoro-4-(trifluoromethyl)phenyl)-1-fluoro-9-hydroxy-6,7,8,9-tetrahydro-5H-5,8-epiminocyclohepta[c]pyridine-10-carboxamide]",500 to 5000
4,"CS(=O)(=O)c1cncc(-c2cc(F)c(NC(=O)N3[C@H]4CC[C@@H]3c3n[nH]c(=O)cc3C4)cc2Cl)c1 [Compound 122, (6S,9R)-N-(5-Chloro-2-fluoro-4-(5-(methylsulfonyl)pyridin-3-yl)phenyl)-3-oxo-3,5,6,7,8,9-hexahydro-2H-6,9-epiminocyclohepta[c]pyridazine-10-carboxamide]",500 to 5000
